Results published in article PMC7617869, “Molecular glues that inhibit deubiquitylase activity and inflammatory signaling” (Nature Structural & Molecular Biology, 2025).
Values joined by “and” are separate entries in the source; they are usually repeats but may differ in a detail not shown here. Equal entries are not always repeated.

Assays:
[1] = system: AMSH* (a STAM2–AMSH fusion); test: AMSH* IQF DUB activity assay; type: biochemical; conditions: for Normalised V0: Fig. 1e, AMSH*
Protocol: (§1) IQF assays were performed in DUB reaction buffer containing 50 mM HEPES–NaOH pH 7.0, 100 mM NaCl, 0.1 mg ml^−1 BSA, 1 mM DTT and 0.03% v/v Brij-35. […] The final concentration of BRISC WT, all BRISC mutants, HsBRISCΔLoop, MmBRISC and DrBRISCΔNΔC was 1 nM. Other enzymes were tested at the following concentrations: 5 nM ARISC (FL), 10 nM CfBRISCΔNΔC, 250 nM AMSH* (ref. [43]), 500 nM USP2 and 1 μM trypsin (Sigma, 9002-07-7). For Michaelis–Menten experiments, 1 nM BRISC with 0–1 μM IQF K63-linked diubiquitin substrate was used. Michaelis–Menten analyses and Lineweaver–Burk plots were calculated using GraphPad Prism (version 9.0).
(§2) To assess enzymatic activity, BRISC complexes were diluted to concentrations between 1 nM and 50 nM. […] Then, 20-μl enzyme reactions were carried out in 384-well black flat-bottom low-flange plates (Corning, 35373). DUB activity was measured using IQF K63-linked diubiquitin (LifeSensors, DU6303) at 50 nM. Cleaved diubiquitin was monitored by measuring fluorescence intensity (excitation, 544 nm; emission, 575 nm; dichroic mirror, 560 nm). Fluorescence intensity was measured every minute for 30 min at 30 °C. Fluorescence intensity units were plotted against time to generate a linear reaction progress curve, where the initial velocity (V0) corresponds to the gradient of the curve (typically achieved within 15 min). IC50 values were calculated using the GraphPad Prism (version 9.0) built-in dose–response equation for inhibitor concentration versus response (variable slope).

BRCC36–Abraxas 2 complex = target: T1, BRCC36–Abraxas 2 complex (Homo sapiens, UniProt P46736+Q15018); test: BRCC36–Abraxas 2 IQF DUB activity assay; type: biochemical; conditions: for Normalised V0: Fig. 1e, BRCC36-Abraxas2
T1 construct: made in house; host or cells: Spodoptera frugiperda (Sf9) insect cells, MultiBac
Protocol: as §1, §2

BRISC (FL) = target: T2, BRISC (FL) (Homo sapiens, UniProt P46736+Q15018+Q9NXR7); test: Native MS of BRISC with inhibitor; conditions: 10 μM BRISC, 1 mM inhibitor
T2 construct: full-length BRISC (FL), ARISC (FL); made in house; host or cells: Spodoptera frugiperda Sf9 insect cells (MultiBac)
Protocol: Samples were buffer-exchanged into 500 mM ammonium acetate using Zeba Spin (7-kDa molecular weight cutoff) desalting columns (Thermo Fisher Scientific). Samples were analyzed by nanoelectrospray ionization MS using a quadrupole orbitrap MS (Q-Exactive UHMR, Thermo Fisher Scientific) using gold–palladium-coated nanospray tips prepared in-house. The MS instrument was operated in positive ion mode using a capillary voltage of 1.5 kV, capillary temperature of 250 °C and S-lens radiofrequency of 200 V. In-source trapping was used with a desolvation voltage of −200 V for 4 μs. Extended trapping was not used. The quadrupole mass range was 2,000–15,000 m/z. Nitrogen gas was used in the higher-energy collisional dissociation cell with a trap gas pressure setting of 5. Orbitrap resolution was 6,250 and detector m/z optimization was low. Five microscans were averaged and an automatic gain control target of 2 × 10^5 was used. Mass calibration was performed by a separate injection of sodium iodide at a concentration of 2 μg μl^−1. Data processing was performed using QualBrowser (version 4.2.28.14) and deconvoluted using UniDec[82].

[2] = system: ISG expression in MCF10A Cas9 cells expressing BRCC45 R137A; test: MCF10A BRCC45 R137A ISG expression (RT–qPCR); type: cell-based, human; conditions: hIFNα2 75 ng/ml, 2.5 μM, 4 h

## O=C(NC1CCNCC1)c1nn(C(=O)c2c(Cl)cccc2Cl)cc1NC(=O)c1c(Cl)cccc1Cl [JMS-175-2]
[1]
  inhibition of AMSH*: did not inhibit
[1]; JMS-175-2 0.02 μM
  Normalised V0: 0.9388 and 1.234 and 1.0263
[1]; JMS-175-2 0.0399999 μM
  Normalised V0: 1.025 and 1.209 and 1.056
[1]; JMS-175-2 0.0599997 μM
  Normalised V0: 0.9933 and 1.1324 and 1.071
[1]; JMS-175-2 0.0799994 μM
  Normalised V0: 0.9897 and 1.213 and 1.205
[1]; JMS-175-2 0.119998 μM
  Normalised V0: 0.9691 and 1.214 and 1.014
[1]; JMS-175-2 0.199996 μM
  Normalised V0: 1.015 and 1.194 and 1.011
[1]; JMS-175-2 0.499975 μM
  Normalised V0: 0.9952 and 1.163 and 1.175
[1]; JMS-175-2 0.799936 μM
  Normalised V0: 1.012 and 1.167
[1]; JMS-175-2 1.25984 μM
  Normalised V0: 0.9861 and 1.185 and 1.256
[1]; JMS-175-2 1.9996 μM
  Normalised V0: 0.9727 and 1.04 and 1.202
[1]; JMS-175-2 3.159 μM
  Normalised V0: 1.015 and 1.159 and 1.047
[1]; JMS-175-2 5.19739 μM
  Normalised V0: 1.314 and 1.221 and 1.023
[1]; JMS-175-2 7.99364 μM
  Normalised V0: 1.059 and 1.183 and 1.085
[1]; JMS-175-2 12.7839 μM
  Normalised V0: 0.9322 and 1.462 and 1.072
[1]; JMS-175-2 19.96 μM
  Normalised V0: 0.9939 and 1.127 and 1.08
[1]; JMS-175-2 31.4999 μM
  Normalised V0: 1.033 and 1.252 and 1.115
[1]; JMS-175-2 50.147 μM
  Normalised V0: 0.9855 and 1.172 and 0.9587
[1]; JMS-175-2 79.7601 μM
  Normalised V0: 0.8988 and 1.1324 and 1.1315
[1]; JMS-175-2 125.99 μM
  Normalised V0: 0.8758 and 1.102 and 0.8516
[1]; JMS-175-2 199.922 μM
  Normalised V0: 0.8346 and 1.096 and 1.031
BRCC36–Abraxas 2 complex; JMS-175-2 0.02 μM
  Normalised V0: 0.9193 and 1.28 and 0.6661
BRCC36–Abraxas 2 complex; JMS-175-2 0.0399999 μM
  Normalised V0: 0.9382 and 1.101 and 1.021
BRCC36–Abraxas 2 complex; JMS-175-2 0.0599997 μM
  Normalised V0: 0.9046 and 1.264
BRCC36–Abraxas 2 complex; JMS-175-2 0.0799994 μM
  Normalised V0: 0.9962 and 1.366 and 1.351
BRCC36–Abraxas 2 complex; JMS-175-2 0.119998 μM
  Normalised V0: 0.9007 and 1.233 and 1.5528
BRCC36–Abraxas 2 complex; JMS-175-2 0.199996 μM
  Normalised V0: 1.097 and 1.27 and 0.9275
BRCC36–Abraxas 2 complex; JMS-175-2 0.499975 μM
  Normalised V0: 0.8805 and 1.153 and 1.01
BRCC36–Abraxas 2 complex; JMS-175-2 0.799936 μM
  Normalised V0: 0.7961 and 1.246 and 1.323
BRCC36–Abraxas 2 complex; JMS-175-2 1.25984 μM
  Normalised V0: 1.021 and 1.5206 and 1.034
BRCC36–Abraxas 2 complex; JMS-175-2 1.9996 μM
  Normalised V0: 0.8007 and 0.8599 and 1.275
BRCC36–Abraxas 2 complex; JMS-175-2 3.159 μM
  Normalised V0: 1.12 and 1.1529 and 0.9992
BRCC36–Abraxas 2 complex; JMS-175-2 5.19739 μM
  Normalised V0: 0.8446 and 1.053 and 1.407
BRCC36–Abraxas 2 complex; JMS-175-2 7.99364 μM
  Normalised V0: 0.9387 and 0.8597 and 1.27
BRCC36–Abraxas 2 complex; JMS-175-2 12.7839 μM
  Normalised V0: 0.8621 and 1.3106 and 1.2815
BRCC36–Abraxas 2 complex; JMS-175-2 19.96 μM
  Normalised V0: 0.8364 and 1.032 and 1.13
BRCC36–Abraxas 2 complex; JMS-175-2 31.4999 μM
  Normalised V0: 0.8279 and 0.9824 and 0.8224
BRCC36–Abraxas 2 complex; JMS-175-2 50.147 μM
  Normalised V0: 0.8729 and 0.9534 and 1.051
BRCC36–Abraxas 2 complex; JMS-175-2 79.7601 μM
  Normalised V0: 0.848 and 0.9243 and 1.386
BRCC36–Abraxas 2 complex; JMS-175-2 125.99 μM
  Normalised V0: 0.7998 and 0.9987 and 1.073
BRCC36–Abraxas 2 complex; minimally active complex
  inhibition of BRCC36–Abraxas 2 complex: did not inhibit
BRISC (FL)
  BRISC dimers detected by native MS: BRISC dimers with 4:4:4:4 stoichiometry were detected
[2]
  ISG expression (ISG15, IFIT1, IFIT2, IFITM1, CXCL10): a reduction in ISG expression was not observed
